Source: US20220117938A1, “COMBINATON THERAPY WITH A DON PRODRUG AND AN IMMUNE CHECKPOINT INHIBITOR” (DRACEN PHARMACEUTICALS, INC., priority 2019, published 2022)

Test system: MC-38 tumors
Assay: Anti-tumor efficacy of Compound 1 in the subcutaneous MC-38 model: schedule comparison (Example 3)
Assay type: in vivo, Mus musculus
Method: Female C57BL/6 mice were inoculated subcutaneously at right flank with MC-38 cells for tumor development. Six days after tumor inoculation, 64 mice with tumor size ranging from 50-100 mm^3 (average tumor size 71 mm^3) were selected and assigned into 8 groups using stratified randomization with 8 mice per group based upon their tumor volumes. The treatments were started from the day of randomization (defined as D0), Group 1 was treated with Vehicle (Tween 80:Ethanol:Saline—5:5:90 v/v/v), S.C. QD*20 days, Group 2 was treated with Compound 1 at 1 mpk S.C. QD*28 days, Group 3 was treated with Compound 1 at 0.5 mpk S.C. QD*28 days, Group 4 was treated with Compound 1 at 1.4 mpk S.C. 5-days ON 2-days OFF×4 cycles, Group 5 was treated with Compound 1 at 0.7 mpk S.C. 5-days ON 2-days OFF×4 cycles, Group 6 was treated with Compound 1 at 3 mpk qd×5, followed by 1 mpk qd×23, S.C. QD, Group 7 was treated with Compound 1 at 1.5 mpk qd×5, followed by 0.5 mpk qd×23, S.C. QD and Group 8 was treated with Compound 1 at 1.4 mpk 10-days ON 4-days OFF×2 cycles, S.C.
Species: Mus musculus; Strain: C57BL/6; Age: 6-8 weeks; Sex: female; Body weight (at treatment start): 16-20 g.
The MC-38 tumor cells were maintained in vitro as a monolayer culture in DMEM medium supplemented with 10% heat inactivated fetal bovine serum and 100 μg/mL penicillin streptomycin at 37° C. in an atmosphere of 5% CO2 in air. The tumor cells were routinely subcultured twice weekly by trypsin-EDTA treatment. The cells growing to a confluency around 70%-80% were harvested and counted for tumor inoculation. The cultured MC-38 were harvested, re-suspended in base medium at a density of 1×10^7 cells/mL with viability>90%. Each mouse was inoculated subcutaneously at the right flank with 1×10^6 cells in 0.1 ml base medium for tumor development.
The treatments were started on day 6 after tumor inoculation when the tumor size reached 50-100 mm^3 (average tumor size 71 mm^3). Each group consisted of 8 tumor-bearing mice. The testing article was administrated to the mice at a dosing volume of 10 mL/Kg according to the predetermined regimen as shown in Table 3-1.
Tumor sizes were measured three times a week in two dimensions using a caliper, and the volume expressed in mm^3 using the formula: V=0.5 a×b^2 where a and b are the long and short diameters of the tumor, respectively. The tumor sizes were then used for the calculations of both tumor growth inhibition (TGI) and T/C values.
TGI is calculated for each group using the formula: […]
TVTreatment_DayN is the average tumor volume of a treatment group on a given day, TVTreatment_Day0 is the average tumor volume of the treatment group on the first day of treatment, TVVehicle_DayN is the average tumor volume of the vehicle control group on a given day, and TVVehicle_Day0 is the average tumor volume of the vehicle group on the first day of treatment.
The T/C value (in percent) is an indication of antitumor effectiveness, T/C (%)=RTVTreatment/RTVControl×100% (RTVTreatment: the mean RTV of the treatment group; RTVControl: the mean RTV of the vehicle treated group). RTV (relative tumor volume)=TVDayN/TVDay0. TVDayN and TVDay0 is the tumor volume on day N and Day 0 respectively. T/C (%)≤42% is considered as significant antitumor activity and <10% is considered as highly significant antitumor activity by the National Cancer Institute criteria.
Relative change of body weight (RCBW) of each mouse was calculated according to the following formula: […]
Animal survival curve: When an individual animal reached to the termination endpoint (TV>2000 mm^3), the mouse was euthanized. The time from treatment initiation to the termination was deemed as its survival time. Survival curve was plotted by Kaplan-Meier method. Median survival time (MST) was calculated for each group. Increase of life span (ILS) was calculated according to the following formula: […]
ILS (%)>25% is considered as a biologically significant survival benefit. […]

For `CC(=O)N[C@@H](Cc1c[nH]c2ccccc12)C(=O)N[C@@H](CCC(=O)C=[N+]=[N-])C(=O)OC(C)C` [Compound 1, Isopropyl (S)-2-((S)-2-acetamido-3-(1H-indol-3-yl)propanamido)-6-diazo-5-oxohexanoate], the “Tumor volume (Mean ± SEM)” value (Day 20, Group 3: 0.5 mg/kg qdx28, sc) was 7 ± 1 mm^3, the “Tumor volume (Mean ± SEM)” value (Day 20, Group 4: 1.4 mg/kg 5-days ON 2-days OFF x 4 cycles, sc) was 0 ± 0 mm^3 and the “Tumor volume (Mean ± SEM)” value (Day 20, Group 5: 0.7 mg/kg 5-days ON 2-days OFF x 4 cycles, sc) was 2 ± 1 mm^3. For the same molecule, the “Tumor volume (Mean ± SEM)” value (Day 20, Group 6: 3 mpk qdx5 followed by 1 mpk qdx23, sc) was 5 ± 2 mm^3, the “Tumor volume (Mean ± SEM)” value (Day 20, Group 7: 1.5 mpk qdx5 followed by 0.5 mpk qdx23, sc) was 5 ± 1 mm^3 and the “Tumor volume (Mean ± SEM)” value (Day 20, Group 8: 1.4 mg/kg 10-days ON 4-days OFF x 2 cycles, sc) was 6 ± 2 mm^3. The “Tumor volume (Mean ± SEM)” value (Day 22, Group 2: 1 mg/kg qdx28, sc) was 2 ± 1 mm^3, the “Tumor volume (Mean ± SEM)” value (Day 22, Group 3: 0.5 mg/kg qdx28, sc) was 6 ± 2 mm^3 and the “Tumor volume (Mean ± SEM)” value (Day 22, Group 4: 1.4 mg/kg 5-days ON 2-days OFF x 4 cycles, sc) was 0 ± 0 mm^3. For the same molecule, the “Tumor volume (Mean ± SEM)” value (Day 22, Group 5: 0.7 mg/kg 5-days ON 2-days OFF x 4 cycles, sc) was 2 ± 1 mm^3, the “Tumor volume (Mean ± SEM)” value (Day 22, Group 6: 3 mpk qdx5 followed by 1 mpk qdx23, sc) was 3 ± 1 mm^3 and the “Tumor volume (Mean ± SEM)” value (Day 22, Group 7: 1.5 mpk qdx5 followed by 0.5 mpk qdx23, sc) was 6 ± 1 mm^3. For the same molecule, the “Tumor volume (Mean ± SEM)” value (Day 22, Group 8: 1.4 mg/kg 10-days ON 4-days OFF x 2 cycles, sc) was 5 ± 2 mm^3, the “Tumor volume (Mean ± SEM)” value (Day 25, Group 2: 1 mg/kg qdx28, sc) was 5 ± 1 mm^3 and the “Tumor volume (Mean ± SEM)” value (Day 25, Group 3: 0.5 mg/kg qdx28, sc) was 6 ± 1 mm^3. The “Tumor volume (Mean ± SEM)” value (Day 25, Group 4: 1.4 mg/kg 5-days ON 2-days OFF x 4 cycles, sc) was 0 ± 0 mm^3, the “Tumor volume (Mean ± SEM)” value (Day 25, Group 5: 0.7 mg/kg 5-days ON 2-days OFF x 4 cycles, sc) was 2 ± 1 mm^3 and the “Tumor volume (Mean ± SEM)” value (Day 25, Group 6: 3 mpk qdx5 followed by 1 mpk qdx23, sc) was 2 ± 1 mm^3. The “Tumor volume (Mean ± SEM)” value (Day 25, Group 7: 1.5 mpk qdx5 followed by 0.5 mpk qdx23, sc) was 4 ± 1 mm^3, the “Tumor volume (Mean ± SEM)” value (Day 25, Group 8: 1.4 mg/kg 10-days ON 4-days OFF x 2 cycles, sc) was 5 ± 2 mm^3 and the “Tumor volume (Mean ± SEM)” value (Day 27, Group 2: 1 mg/kg qdx28, sc) was 6 ± 2 mm^3. The “Tumor volume (Mean ± SEM)” value (Day 27, Group 3: 0.5 mg/kg qdx28, sc) was 7 ± 1 mm^3, the “Tumor volume (Mean ± SEM)” value (Day 27, Group 4: 1.4 mg/kg 5-days ON 2-days OFF x 4 cycles, sc) was 0 ± 0 mm^3 and the “Tumor volume (Mean ± SEM)” value (Day 27, Group 5: 0.7 mg/kg 5-days ON 2-days OFF x 4 cycles, sc) was 1 ± 1 mm^3. The “Tumor volume (Mean ± SEM)” value (Day 27, Group 6: 3 mpk qdx5 followed by 1 mpk qdx23, sc) was 2 ± 1 mm^3, the “Tumor volume (Mean ± SEM)” value (Day 27, Group 7: 1.5 mpk qdx5 followed by 0.5 mpk qdx23, sc) was 4 ± 1 mm^3 and the “Tumor volume (Mean ± SEM)” value (Day 27, Group 8: 1.4 mg/kg 10-days ON 4-days OFF x 2 cycles, sc) was 6 ± 2 mm^3. For the same molecule, the “Tumor volume (Mean ± SEM)” value (Day 29, Group 2: 1 mg/kg qdx28, sc) was 17 ± 11 mm^3, the “Tumor volume (Mean ± SEM)” value (Day 29, Group 3: 0.5 mg/kg qdx28, sc) was 13 ± 3 mm^3 and the “Tumor volume (Mean ± SEM)” value (Day 29, Group 4: 1.4 mg/kg 5-days ON 2-days OFF x 4 cycles, sc) was 1 ± 1 mm^3. The “Tumor volume (Mean ± SEM)” value (Day 29, Group 5: 0.7 mg/kg 5-days ON 2-days OFF x 4 cycles, sc) was 2 ± 1 mm^3, the “Tumor volume (Mean ± SEM)” value (Day 29, Group 6: 3 mpk qdx5 followed by 1 mpk qdx23, sc) was 5 ± 3 mm^3 and the “Tumor volume (Mean ± SEM)” value (Day 29, Group 7: 1.5 mpk qdx5 followed by 0.5 mpk qdx23, sc) was 10 ± 3 mm^3. For the same molecule, the “Tumor volume (Mean ± SEM)” value (Day 29, Group 8: 1.4 mg/kg 10-days ON 4-days OFF x 2 cycles, sc) was 17 ± 5 mm^3, the “Tumor volume (Mean ± SEM)” value (Day 32, Group 2: 1 mg/kg qdx28, sc) was 92 ± 47 mm^3 and the “Tumor volume (Mean ± SEM)” value (Day 32, Group 3: 0.5 mg/kg qdx28, sc) was 45 ± 9 mm^3. For the same molecule, the “Tumor volume (Mean ± SEM)” value (Day 32, Group 4: 1.4 mg/kg 5-days ON 2-days OFF x 4 cycles, sc) was 13 ± 7 mm^3, the “Tumor volume (Mean ± SEM)” value (Day 32, Group 5: 0.7 mg/kg 5-days ON 2-days OFF x 4 cycles, sc) was 20 ± 12 mm^3 and the “Tumor volume (Mean ± SEM)” value (Day 32, Group 6: 3 mpk qdx5 followed by 1 mpk qdx23, sc) was 51 ± 35 mm^3. The “Tumor volume (Mean ± SEM)” value (Day 32, Group 7: 1.5 mpk qdx5 followed by 0.5 mpk qdx23, sc) was 44 ± 12 mm^3, the “Tumor volume (Mean ± SEM)” value (Day 32, Group 8: 1.4 mg/kg 10-days ON 4-days OFF x 2 cycles, sc) was 73 ± 19 mm^3 and the “Tumor volume (Mean ± SEM)” value (Day 34, Group 2: 1 mg/kg qdx28, sc) was 190 ± 81 mm^3. The “Tumor volume (Mean ± SEM)” value (Day 34, Group 3: 0.5 mg/kg qdx28, sc) was 121 ± 20 mm^3, the “Tumor volume (Mean ± SEM)” value (Day 34, Group 4: 1.4 mg/kg 5-days ON 2-days OFF x 4 cycles, sc) was 37 ± 21 mm^3 and the “Tumor volume (Mean ± SEM)” value (Day 34, Group 5: 0.7 mg/kg 5-days ON 2-days OFF x 4 cycles, sc) was 32 ± 16 mm^3. The “Tumor volume (Mean ± SEM)” value (Day 34, Group 6: 3 mpk qdx5 followed by 1 mpk qdx23, sc) was 114 ± 79 mm^3, the “Tumor volume (Mean ± SEM)” value (Day 34, Group 7: 1.5 mpk qdx5 followed by 0.5 mpk qdx23, sc) was 112 ± 24 mm^3 and the “Tumor volume (Mean ± SEM)” value (Day 34, Group 8: 1.4 mg/kg 10-days ON 4-days OFF x 2 cycles, sc) was 168 ± 43 mm^3. For the same molecule, the “Tumor volume (Mean ± SEM)” value (Day 36, Group 2: 1 mg/kg qdx28, sc) was 454 ± 212 mm^3, the “Tumor volume (Mean ± SEM)” value (Day 36, Group 3: 0.5 mg/kg qdx28, sc) was 285 ± 42 mm^3 and the “Tumor volume (Mean ± SEM)” value (Day 36, Group 4: 1.4 mg/kg 5-days ON 2-days OFF x 4 cycles, sc) was 100 ± 47 mm^3. The “Tumor volume (Mean ± SEM)” value (Day 36, Group 5: 0.7 mg/kg 5-days ON 2-days OFF x 4 cycles, sc) was 125 ± 63 mm^3, the “Tumor volume (Mean ± SEM)” value (Day 36, Group 6: 3 mpk qdx5 followed by 1 mpk qdx23, sc) was 288 ± 174 mm^3 and the “Tumor volume (Mean ± SEM)” value (Day 36, Group 7: 1.5 mpk qdx5 followed by 0.5 mpk qdx23, sc) was 364 ± 69 mm^3. The “Tumor volume (Mean ± SEM)” value (Day 36, Group 8: 1.4 mg/kg 10-days ON 4-days OFF x 2 cycles, sc) was 479 ± 121 mm^3, the “Tumor volume (Mean ± SEM)” value (Day 39, Group 2: 1 mg/kg qdx28, sc) was 1109 ± 398 mm^3 and the “Tumor volume (Mean ± SEM)” value (Day 39, Group 3: 0.5 mg/kg qdx28, sc) was 592 ± 61 mm^3. The “Tumor volume (Mean ± SEM)” value (Day 39, Group 4: 1.4 mg/kg 5-days ON 2-days OFF x 4 cycles, sc) was 238 ± 72 mm^3, the “Tumor volume (Mean ± SEM)” value (Day 39, Group 5: 0.7 mg/kg 5-days ON 2-days OFF x 4 cycles, sc) was 242 ± 114 mm^3 and the “Tumor volume (Mean ± SEM)” value (Day 39, Group 6: 3 mpk qdx5 followed by 1 mpk qdx23, sc) was 723 ± 345 mm^3. The “Tumor volume (Mean ± SEM)” value (Day 39, Group 7: 1.5 mpk qdx5 followed by 0.5 mpk qdx23, sc) was 904 ± 174 mm^3, the “Tumor volume (Mean ± SEM)” value (Day 39, Group 8: 1.4 mg/kg 10-days ON 4-days OFF x 2 cycles, sc) was 945 ± 260 mm^3 and the “Tumor volume (Mean ± SEM)” value (Day 41, Group 3: 0.5 mg/kg qdx28, sc) was 1718 ± 136 mm^3. For the same molecule, the “Tumor volume (Mean ± SEM)” value (Day 41, Group 4: 1.4 mg/kg 5-days ON 2-days OFF x 4 cycles, sc) was 420 ± 129 mm^3 and the “Mice completely tumor free on D67 ("cured")” value (Group 5: 0.7 mpk S.C. 5-days ON 2-days OFF×4 cycles, 8 mice per group) was “Four”.
